Test results published in patent US8158656B2, “2-indolinone derivatives as multi-target protein kinase inhibitors and histone deacetylase inhibitors” (Shenzhen Chipscreen Biosciences Ltd., priority 2008, dated 2012).

Columns and labels:
Raji = test: Tumor cell proliferation (MTS), Raji; type: cell-based; conditions: Homo sapiens, 72 hours
Protocol: (§1) Measurement of in vivo cell proliferation:
(§2) Tumor cells were trypsinized and plated into 96-well plates at 3,000 per well and incubated in complete medium with 10% FBS for 24 hours. Compounds were added over a final concentration range of 100 μmol/L to 100 nmol/L in 0.1% DMSO and incubated for 72 hours in complete medium. The effects on proliferation were determined by addition of MTS reagent (Promega) according to the instruction, incubation for 2 hours at 37° C. in CO2 incubator, and record the absorbance at 490 nm using an ELISA plate reader.

Jurkat = test: Tumor cell proliferation (MTS), Jurkat; type: cell-based; conditions: Homo sapiens, 72 hours
Protocol: as §1, §2

Ramos = test: Tumor cell proliferation (MTS), Ramos; type: cell-based; conditions: Homo sapiens, 72 hours
Protocol: as §1, §2

Hut-78 = test: Tumor cell proliferation (MTS), Hut-78; type: cell-based; conditions: Homo sapiens, HuT78, Hut-78, 72 hours
Protocol: as §1, §2

HL60 = test: Tumor cell proliferation (MTS), HL60; type: cell-based; conditions: Homo sapiens, HL-60, HL60, 72 hours
Protocol: as §1, §2

Bel-7402 = test: Tumor cell proliferation (MTS), Bel-7402; type: cell-based; conditions: Homo sapiens, Bel-7402, 72 hours
Protocol: as §1, §2

A549 = test: Tumor cell proliferation (MTS), A549; type: cell-based; conditions: Homo sapiens, A549, 72 hours
Protocol: as §1, §2

HCT-8 = test: Tumor cell proliferation (MTS), HCT-8; type: cell-based; conditions: Homo sapiens, HCT-8, 72 hours
Protocol: as §1, §2

HeLa = test: Tumor cell proliferation (MTS), HeLa; type: cell-based; conditions: Homo sapiens, 72 hours
Protocol: as §1, §2

U937 = test: Tumor cell proliferation (MTS), U937; type: cell-based; conditions: Homo sapiens, U-937, U937, 72 hours
Protocol: as §1, §2

MCF7 = test: Tumor cell proliferation (MTS), MCF7; type: cell-based; conditions: Homo sapiens, MCF7, 72 hours
Protocol: as §1, §2

MDA-MB-231 = test: Tumor cell proliferation (MTS), MDA-MB-231; type: cell-based; conditions: Homo sapiens, MDA-MB-231, 72 hours
Protocol: as §1, §2

HDAC4/5 = test: MEF2 reporter assay in HeLa cells; type: cell-based, human; conditions: relative to CS055 at 3 μM
Protocol: (§3) HDAC subtype selectivity inhibition assay of tested compounds was carried out by several reporter gene assays experiments. Briefly, HeLa cells were seeded in 96-well plates the day before transfection to give a confluence of 50-80%. Cells were transfected with one of reporter gene plasmid containing a promoter sequence or response element upstream of a luciferase gene construct using FuGene6 transfection reagent according to the manufacturer's instruction (Roche). The promoters or response elements including p21-promoter, gdf11-promoter, MEF-binding element (MEF2), Nur77-promoter were fused upstream to the luciferase gene reporter construct. For normalizing the transfection efficiency, a GFP expression plasmid was cotransfected. Cells were allowed to express protein for 24 hours followed by addition of individual compounds or the vehicle (DMSO). 24 hours later the cells were harvested, and the luciferase assay and GFP assay were performed using corresponding assay kits according to the manufacturer's instructions (Promega).

Class I HDAC = test: P21 reporter assay in HeLa cells; type: cell-based, human; conditions: relative to CS055 at 3 μM
Protocol: as §3

HDAC3 = molecular target: T1, HDAC3 (Homo sapiens, UniProt O15379); test: GDF11 reporter assay in HeLa cells; type: cell-based; conditions: relative to CS055 at 3 μM
T1 construct: endogenous in cells; host or cells: HeLa
T1 sequence (O15379 whole entry): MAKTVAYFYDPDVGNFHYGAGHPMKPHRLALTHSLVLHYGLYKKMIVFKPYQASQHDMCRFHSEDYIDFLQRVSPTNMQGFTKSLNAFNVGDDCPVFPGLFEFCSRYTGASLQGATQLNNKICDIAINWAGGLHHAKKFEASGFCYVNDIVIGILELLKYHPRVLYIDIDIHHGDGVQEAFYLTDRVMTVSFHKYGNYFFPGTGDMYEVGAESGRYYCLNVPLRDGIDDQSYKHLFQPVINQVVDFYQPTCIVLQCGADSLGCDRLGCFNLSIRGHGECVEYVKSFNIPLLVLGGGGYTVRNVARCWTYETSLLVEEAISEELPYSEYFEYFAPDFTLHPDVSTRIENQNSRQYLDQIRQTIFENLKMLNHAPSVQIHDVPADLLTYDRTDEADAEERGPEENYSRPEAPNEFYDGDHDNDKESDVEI
T1 sequence (Q9Y618 whole entry partner): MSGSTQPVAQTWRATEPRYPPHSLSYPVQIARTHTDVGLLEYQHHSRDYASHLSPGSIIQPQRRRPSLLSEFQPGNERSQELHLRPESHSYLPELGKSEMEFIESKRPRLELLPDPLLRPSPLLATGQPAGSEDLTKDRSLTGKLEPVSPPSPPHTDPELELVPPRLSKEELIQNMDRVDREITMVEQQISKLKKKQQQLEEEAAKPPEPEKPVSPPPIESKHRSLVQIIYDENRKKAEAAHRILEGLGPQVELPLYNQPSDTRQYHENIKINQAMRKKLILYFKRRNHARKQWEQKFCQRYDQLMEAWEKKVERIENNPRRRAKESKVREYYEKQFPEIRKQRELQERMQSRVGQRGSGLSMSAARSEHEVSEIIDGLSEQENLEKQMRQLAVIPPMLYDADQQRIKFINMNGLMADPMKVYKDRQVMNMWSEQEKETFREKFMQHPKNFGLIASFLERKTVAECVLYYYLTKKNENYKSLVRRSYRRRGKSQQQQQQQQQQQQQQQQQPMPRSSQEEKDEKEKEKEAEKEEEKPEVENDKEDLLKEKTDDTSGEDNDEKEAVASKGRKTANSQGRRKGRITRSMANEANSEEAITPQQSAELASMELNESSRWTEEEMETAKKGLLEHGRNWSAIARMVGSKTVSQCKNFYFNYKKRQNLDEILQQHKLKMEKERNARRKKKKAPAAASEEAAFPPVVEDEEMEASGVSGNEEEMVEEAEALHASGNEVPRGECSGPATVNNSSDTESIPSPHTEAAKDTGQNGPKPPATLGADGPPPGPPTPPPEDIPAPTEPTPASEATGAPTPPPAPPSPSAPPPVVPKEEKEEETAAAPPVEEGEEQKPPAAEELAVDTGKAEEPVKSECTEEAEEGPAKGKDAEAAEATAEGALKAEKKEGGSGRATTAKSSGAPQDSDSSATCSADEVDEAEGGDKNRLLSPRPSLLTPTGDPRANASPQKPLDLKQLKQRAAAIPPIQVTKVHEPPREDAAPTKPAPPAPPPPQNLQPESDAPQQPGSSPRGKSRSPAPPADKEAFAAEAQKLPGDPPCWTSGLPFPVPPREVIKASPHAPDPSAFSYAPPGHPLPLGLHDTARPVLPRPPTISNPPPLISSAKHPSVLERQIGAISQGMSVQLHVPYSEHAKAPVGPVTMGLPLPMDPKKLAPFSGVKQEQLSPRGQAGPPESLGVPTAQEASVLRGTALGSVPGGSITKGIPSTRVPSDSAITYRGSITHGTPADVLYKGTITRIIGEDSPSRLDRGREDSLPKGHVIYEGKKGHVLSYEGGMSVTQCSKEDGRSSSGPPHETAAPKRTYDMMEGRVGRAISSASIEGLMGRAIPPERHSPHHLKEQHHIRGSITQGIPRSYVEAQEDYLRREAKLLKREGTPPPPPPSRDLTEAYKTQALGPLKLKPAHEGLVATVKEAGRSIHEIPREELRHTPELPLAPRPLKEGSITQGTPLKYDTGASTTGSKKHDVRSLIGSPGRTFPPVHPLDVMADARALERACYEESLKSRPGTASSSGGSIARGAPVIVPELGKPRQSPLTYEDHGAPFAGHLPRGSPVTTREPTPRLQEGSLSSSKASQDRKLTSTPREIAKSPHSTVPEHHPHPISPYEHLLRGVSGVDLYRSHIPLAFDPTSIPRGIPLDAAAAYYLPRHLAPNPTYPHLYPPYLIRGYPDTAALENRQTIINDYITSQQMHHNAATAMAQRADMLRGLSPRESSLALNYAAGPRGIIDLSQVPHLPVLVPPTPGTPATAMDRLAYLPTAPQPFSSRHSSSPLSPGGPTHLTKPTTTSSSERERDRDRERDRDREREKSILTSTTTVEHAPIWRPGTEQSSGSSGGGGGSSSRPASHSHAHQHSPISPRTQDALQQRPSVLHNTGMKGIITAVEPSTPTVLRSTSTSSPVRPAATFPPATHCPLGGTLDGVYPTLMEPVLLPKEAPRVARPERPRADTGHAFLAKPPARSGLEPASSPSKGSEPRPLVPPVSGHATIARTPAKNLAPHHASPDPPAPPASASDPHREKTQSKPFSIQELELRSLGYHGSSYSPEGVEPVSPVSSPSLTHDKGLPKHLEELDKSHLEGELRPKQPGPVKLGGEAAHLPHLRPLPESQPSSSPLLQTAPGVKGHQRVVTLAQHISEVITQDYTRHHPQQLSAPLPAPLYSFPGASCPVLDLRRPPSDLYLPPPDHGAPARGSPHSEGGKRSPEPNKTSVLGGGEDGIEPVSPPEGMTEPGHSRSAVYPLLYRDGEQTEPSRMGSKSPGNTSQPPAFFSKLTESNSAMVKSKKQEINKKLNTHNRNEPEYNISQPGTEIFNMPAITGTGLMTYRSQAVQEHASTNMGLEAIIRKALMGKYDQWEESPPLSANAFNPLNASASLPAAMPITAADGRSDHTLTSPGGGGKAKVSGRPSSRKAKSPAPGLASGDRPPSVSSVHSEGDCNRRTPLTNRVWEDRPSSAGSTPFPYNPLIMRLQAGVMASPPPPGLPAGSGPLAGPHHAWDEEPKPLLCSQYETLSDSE
Protocol: as §3

HDAC7 = molecular target: T2, HDAC7 (Homo sapiens, UniProt Q8WUI4); test: Nur77 reporter assay in HeLa cells; type: cell-based; conditions: relative to CS055 at 3 μM
T2 construct: endogenous in cells; host or cells: HeLa
T2 sequence (Q8WUI4 1-952): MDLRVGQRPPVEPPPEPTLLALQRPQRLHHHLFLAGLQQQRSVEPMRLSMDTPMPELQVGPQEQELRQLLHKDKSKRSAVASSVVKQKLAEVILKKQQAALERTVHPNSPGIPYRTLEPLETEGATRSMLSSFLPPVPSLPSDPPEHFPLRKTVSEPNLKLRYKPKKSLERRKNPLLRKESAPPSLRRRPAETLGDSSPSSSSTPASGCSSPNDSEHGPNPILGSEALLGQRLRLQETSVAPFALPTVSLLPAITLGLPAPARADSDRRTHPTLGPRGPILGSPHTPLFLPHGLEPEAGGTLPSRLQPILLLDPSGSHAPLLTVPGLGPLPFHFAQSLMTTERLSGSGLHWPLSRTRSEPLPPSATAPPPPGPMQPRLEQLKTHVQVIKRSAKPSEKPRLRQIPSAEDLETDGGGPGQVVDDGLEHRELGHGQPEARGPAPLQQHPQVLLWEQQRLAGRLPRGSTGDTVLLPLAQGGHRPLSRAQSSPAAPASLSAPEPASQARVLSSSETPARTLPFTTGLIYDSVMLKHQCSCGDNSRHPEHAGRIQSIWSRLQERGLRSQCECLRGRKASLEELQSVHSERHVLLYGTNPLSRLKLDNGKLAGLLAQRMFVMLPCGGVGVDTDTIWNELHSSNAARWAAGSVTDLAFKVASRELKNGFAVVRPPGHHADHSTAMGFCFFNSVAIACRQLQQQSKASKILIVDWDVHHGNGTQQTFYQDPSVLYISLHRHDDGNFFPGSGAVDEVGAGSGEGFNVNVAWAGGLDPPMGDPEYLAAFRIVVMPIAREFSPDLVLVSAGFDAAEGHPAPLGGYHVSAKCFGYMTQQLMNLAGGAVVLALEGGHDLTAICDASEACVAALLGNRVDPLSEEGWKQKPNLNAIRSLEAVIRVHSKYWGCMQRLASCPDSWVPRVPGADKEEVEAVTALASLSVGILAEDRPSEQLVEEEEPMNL
Protocol: as §3

Row | GI50 (Raji) [µM] | GI50 (Jurkat) [µM] | GI50 (Ramos) [µM] | GI50 (Hut-78) [µM] | GI50 (HL60) [µM] | GI50 (Bel-7402) [µM] | GI50 (A549) [µM] | GI50 (HCT-8) [µM] | GI50 (HeLa) [µM] | GI50 (U937) [µM] | GI50 (MCF7) [µM] | GI50 (MDA-MB-231) [µM] | Structure (SMILES) | HDAC4/5 (MEF2 reporter assay) % Max Resp of CS055 at 3 μM (HDAC4/5) [%] | Class I HDAC (P21 reporter assay) % Max Resp of CS055 at 3 μM (Class I HDAC) [%] | HDAC3 (GDF11 reporter assay) % Max Resp of CS055 at 3 μM (HDAC3) [%] | HDAC7 (Nur77 reporter assay) % Max Resp of CS055 at 3 μM (HDAC7) [%]
1 | 4.15 | 16.9 | 1.51 | 12.5 | 1.28 | 9.73 | 13.8 | 5.35 | 30.8 | 4.06 | 9.51 | 4.25 | CNC(=O)c1cc(Oc2ccc(NC(=O)Nc3ccc(Cl)c(C(F)(F)F)c3)cc2)ccn1 [Sorafinib, reference compound] |  |  |  | 
2 |  |  |  |  |  |  |  |  |  |  |  |  | O=C(CCCCCCC(=O)Nc1ccccc1)NO [SAHA, suberoylanilide hydroxamic acid, reference compound] | 427.3 | 304.1 | 317.9 | 514.9
3 | 5.47 | 7.05 | 12 | 4.06 | 1.73 | 13.1 | 14.7 | 12.2 | 9.29 | 8.28 | 7.55 | 4.66 | CCN(CC)CCNC(=O)c1c(C)[nH]c(/C=C2\C(=O)Nc3ccc(F)cc32)c1C [Sutent, reference compound] |  |  |  | 
